Source: PubChem BioAssay AID330 (DTP/NCI, 2004)
Where “and” joins values, the source holds several entries; their conditions need not be identical. Equal entries are not always repeated. Inconclusive results and toxic doses are left out. The calls were made as follows: active = survival T/C of 150% or more; inactive = T/C below 125% in these data.

System: P388 leukemia ip, CD2F1 mice, survival T/C
Assay: NCI In Vivo Anticancer Drug Screen. Data for tumor model P388 Leukemia (intraperitoneal) in CD2F1 (CDF1) mice
Details: endpoint: median survival time, higher = longer survival
How it was run: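 Mice carrying the transplanted tumor received test compound or vehicle. Survival was recorded in each group, and the value is the treated-group measurement divided by that of the vehicle-treated control group.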

[1] = dose: 50.0 mg/kg/injection, schedule: Q01DX009 (ip), vehicle: saline
[2] = dose: 100.0 mg/kg/injection, schedule: Q01DX009 (ip), vehicle: saline
[3] = dose: 50.0 mg/kg/injection, schedule: Q01DX005 (ip), vehicle: Klucel (hydroxypropylcellulose) (HPC)
[4] = dose: 100.0 mg/kg/injection, schedule: Q01DX005 (ip), vehicle: Klucel (hydroxypropylcellulose) (HPC)
[5] = dose: 200.0 mg/kg/injection, schedule: Q01DX005 (ip), vehicle: Klucel (hydroxypropylcellulose) (HPC)
[6] = dose: 30.0 mg/kg/injection, schedule: Q01DX005 (ip), vehicle: Klucel (hydroxypropylcellulose) (HPC)
[7] = dose: 60.0 mg/kg/injection, schedule: Q01DX005 (ip), vehicle: Klucel (hydroxypropylcellulose) (HPC)
[8] = dose: 120.0 mg/kg/injection, schedule: Q01DX005 (ip), vehicle: Klucel (hydroxypropylcellulose) (HPC)
[9] = dose: 240.0 mg/kg/injection, schedule: Q01DX005 (ip), vehicle: Klucel (hydroxypropylcellulose) (HPC)
[10] = dose: 50.0 mg/kg/injection, schedule: Q01DX009 (ip), vehicle: saline with Tween-80
[11] = dose: 60.0 mg/kg/injection, schedule: Q01DX005 (ip), vehicle: saline
[12] = dose: 120.0 mg/kg/injection, schedule: Q01DX005 (ip), vehicle: saline

Measured: T/C

C/C=C1/CN2CCC34c5ccccc5N(C)C23C2CC1C4(C(=O)OC)C(O)O2 (stereo unspecified)
inactive: dose: 9.25 mg/kg/injection, schedule: Q01DX005 (ip), vehicle: saline + Tween-80 + alcohol 114 % of control | dose: 18.5 mg/kg/injection, schedule: Q01DX005 (ip), vehicle: saline + Tween-80 + alcohol 93 % of control | dose: 37.0 mg/kg/injection, schedule: Q01DX005 (ip), vehicle: saline + Tween-80 + alcohol 100 % of control | dose: 74.0 mg/kg/injection, schedule: Q01DX005 (ip), vehicle: saline + Tween-80 + alcohol 100 % of control

Nc1cccc(S(=O)(=O)Nc2ncc(Cl)cn2)c1.[Ag]
inactive: [1] 93 % of control | [2] 108 % of control

COc1cc2c(cc1OC)C(C#N)C2 (stereo unspecified)
inactive: dose: 0.78 mg/kg/injection, schedule: Q01DX009 (ip), vehicle: saline with Tween-80 100 % of control | dose: 1.56 mg/kg/injection, schedule: Q01DX009 (ip), vehicle: saline with Tween-80 97 % of control | dose: 3.12 mg/kg/injection, schedule: Q01DX009 (ip), vehicle: saline with Tween-80 102 % of control | dose: 6.25 mg/kg/injection, schedule: Q01DX009 (ip), vehicle: saline with Tween-80 102 % of control

Cc1ccccc1N=C(c1ccccc1)C1C(=O)c2ccccc2C1=O
inactive: dose: 50.0 mg/kg/injection, schedule: Q01DX005 (ip), vehicle: DMSO 100 % of control | [3] 103 % of control | dose: 100.0 mg/kg/injection, schedule: Q01DX005 (ip), vehicle: DMSO 98 % of control | [4] 106 % of control | dose: 200.0 mg/kg/injection, schedule: Q01DX005 (ip), vehicle: DMSO 97 % of control | [5] 103 % of control | dose: 400.0 mg/kg/injection, schedule: Q01DX005 (ip), vehicle: DMSO 101 % of control | dose: 800.0 mg/kg/injection, schedule: Q01DX005 (ip), vehicle: DMSO 97 % of control

O=C1OI(OI2OC(=O)c3ccccc32)c2ccccc21
inactive: dose: 15.0 mg/kg/injection, schedule: Q01DX005 (ip), vehicle: Klucel (hydroxypropylcellulose) (HPC) 102 % of control and 116 % of control | [6] 104 % of control and 92 % of control | [7] 100 % of control and 101 % of control and 113 % of control | [8] 101 % of control and 113 % of control

C[CH](C)[GeH]([CH](C)C)[CH](C)C
inactive: [1] 91 % of control | [2] 91 % of control

Cc1c(C)c2ccc3occc(=O)c3c2oc1=O
inactive: dose: 50.0 mg/kg/injection, schedule: Q01DX005 (ip), vehicle: saline with Tween-80 102 % of control | dose: 100.0 mg/kg/injection, schedule: Q01DX005 (ip), vehicle: saline with Tween-80 101 % of control | dose: 200.0 mg/kg/injection, schedule: Q01DX005 (ip), vehicle: saline with Tween-80 100 % of control

CCOC(=O)C(Cc1ccc(O)c(C=O)c1)NC(C)=O (stereo unspecified)
inactive: [7] 96 % of control | [8] 97 % of control | [9] 98 % of control

CC(=O)NC1C(S[As](C)C)OC(COC(C)=O)C(OC(C)=O)C1OC(C)=O (stereo unspecified)
inactive: dose: 12.5 mg/kg/injection, schedule: Q01DX009 (ip), vehicle: saline with Tween-80 102 % of control | dose: 25.0 mg/kg/injection, schedule: Q01DX009 (ip), vehicle: saline with Tween-80 113 % of control | [10] 116 % of control | dose: 200.0 mg/kg/injection, schedule: Q01DX009 (ip), vehicle: saline with Tween-80 115 % of control

O=C1CNC(=O)c2cc(Cl)ccc2N1
inactive: dose: 50.0 mg/kg/injection, schedule: Q01DX009 (ip), vehicle: Klucel (hydroxypropylcellulose) (HPC) 103 % of control | dose: 100.0 mg/kg/injection, schedule: Q01DX009 (ip), vehicle: Klucel (hydroxypropylcellulose) (HPC) 97 % of control | dose: 200.0 mg/kg/injection, schedule: Q01DX009 (ip), vehicle: Klucel (hydroxypropylcellulose) (HPC) 100 % of control

C[Se](=C(C(=O)c1ccccc1)C(=O)c1ccccc1)c1ccccc1 (stereo unspecified)
inactive: dose: 100.0 mg/kg/injection, schedule: Q04DX002 (ip), vehicle: saline 99 % of control | dose: 200.0 mg/kg/injection, schedule: Q04DX002 (ip), vehicle: saline 100 % of control | dose: 400.0 mg/kg/injection, schedule: Q04DX002 (ip), vehicle: saline 98 % of control

C=C1SC(=Nc2cccc(OC)c2)N(c2nc(Cl)nc(Cl)n2)C12CCCCC2
inactive: [1] 100 % of control | [2] 101 % of control | dose: 200.0 mg/kg/injection, schedule: Q01DX009 (ip), vehicle: saline 100 % of control

CC1(C)OC2C(COC(c3ccccc3)(c3ccccc3)c3ccccc3)OC(n3ccc(=O)[nH]c3=O)C2O1 (stereo unspecified)
inactive: [3] 97 % of control | [4] 89 % of control | [5] 88 % of control

CN(C)c1ncnc2c1cnn2C
inactive: [10] 109 % of control | dose: 50.0 mg/kg/injection, schedule: Q04DX003 (ip), vehicle: saline sonified 100 % of control | dose: 100.0 mg/kg/injection, schedule: Q04DX003 (ip), vehicle: saline sonified 100 % of control | dose: 200.0 mg/kg/injection, schedule: Q04DX003 (ip), vehicle: saline sonified 109 % of control

CC1=NN(C(=O)c2ccccn2)C(c2ccccc2)/C1=N\Nc1ccc(S(N)(=O)=O)cc1 (stereo unspecified)
inactive: [7] 87 % of control | [8] 93 % of control | [9] 87 % of control

c1ccc(C2SCC3COCN32)cc1 (stereo unspecified)
inactive: dose: 100.0 mg/kg/injection, schedule: Q04DX003 (ip), vehicle: saline with Tween-80 97 % of control | dose: 200.0 mg/kg/injection, schedule: Q04DX003 (ip), vehicle: saline with Tween-80 101 % of control | dose: 400.0 mg/kg/injection, schedule: Q04DX003 (ip), vehicle: saline with Tween-80 100 % of control

Cn1nnnc1-c1ccc(C(=O)O)cc1
inactive: dose: 25.0 mg/kg/injection, schedule: Q01DX005 (ip), vehicle: Klucel (hydroxypropylcellulose) (HPC) 102 % of control | [3] 102 % of control and 91 % of control | [4] 96 % of control | [5] 93 % of control

CC(=O)CC(=O)C1C(S[As](C)C)CC2C3CCC4=CC(=O)C=CC4(C)C3C(=O)CC21C (stereo unspecified)
inactive: [3] 102 % of control | [4] 91 % of control and 94 % of control | [5] 94 % of control and 98 % of control

CC1(C)OC2CC(=O)OCC23C1CC(=O)C1(C)C3CCC2(C)C(c3ccoc3)OC(=O)C3OC321 (stereo unspecified)
inactive: dose: 50.0 mg/kg/injection, schedule: Q01DX010 (ip), vehicle: saline 100 % of control | dose: 100.0 mg/kg/injection, schedule: Q01DX010 (ip), vehicle: saline 95 % of control | dose: 200.0 mg/kg/injection, schedule: Q01DX010 (ip), vehicle: saline 95 % of control

O=C(CSC(=S)N1CCCCC1)c1ccc([N+](=O)[O-])cc1
inactive: dose: 12.5 mg/kg/injection, schedule: Q01DX009 (ip), vehicle: distilled water + Tween-80 98 % of control | dose: 25.0 mg/kg/injection, schedule: Q01DX009 (ip), vehicle: distilled water + Tween-80 96 % of control | dose: 50.0 mg/kg/injection, schedule: Q01DX009 (ip), vehicle: distilled water + Tween-80 90 % of control | dose: 100.0 mg/kg/injection, schedule: Q01DX009 (ip), vehicle: distilled water + Tween-80 90 % of control | dose: 200.0 mg/kg/injection, schedule: Q01DX009 (ip), vehicle: distilled water + Tween-80 89 % of control

O=S(=O)(c1ccc(Cl)cc1)N(CCCCCN(S(=O)(=O)c1ccc(Cl)cc1)S(=O)(=O)c1ccc(Cl)cc1)S(=O)(=O)c1ccc(Cl)cc1
inactive: [6] 94 % of control | [7] 105 % of control | [8] 96 % of control | [9] 93 % of control

C#CCC(C(=O)OC)N(CC)CC (stereo unspecified)
inactive: [11] 107 % of control | [12] 111 % of control | dose: 240.0 mg/kg/injection, schedule: Q01DX005 (ip), vehicle: saline 120 % of control

CCN(CC)CCCC(C)Nc1ncnc2ccc(OC)cc12 (stereo unspecified)
inactive: dose: 50.0 mg/kg/injection, schedule: Q01DX005 (ip), vehicle: saline 94 % of control | dose: 100.0 mg/kg/injection, schedule: Q01DX005 (ip), vehicle: saline 99 % of control | dose: 200.0 mg/kg/injection, schedule: Q01DX005 (ip), vehicle: saline 94 % of control

CC1C(=O)C(C)C(c2ccccc2)OC1c1ccccc1 (stereo unspecified)
inactive: dose: 50.0 mg/kg/injection, schedule: Q04DX003 (ip), vehicle: saline 97 % of control | dose: 100.0 mg/kg/injection, schedule: Q04DX003 (ip), vehicle: saline 100 % of control | dose: 200.0 mg/kg/injection, schedule: Q04DX003 (ip), vehicle: saline 107 % of control

CC(C)N[C@@H]1CCC[C@@H]2c3ccccc3[C@@]21O
inactive: [11] 96 % of control | [12] 95 % of control
